Measured values reported in BindingDB's records for doi:10.1016/j.bmc.2018.03.025 (Xi'An Jiaotong University, 2018).

Assay: Inhibition of EGFR L858R mutant (unknown origin) using poly (Glu, Tyr) as substrate after 40 mins by kinase-glo plus luminescence assay

Which IC50 does the source give for `CN(C)CCOc1ccc(Nc2ncc3nc(Sc4ccc(F)cc4)n(C4CCOCC4)c3n2)cc1` here?
Its IC50 is 1.2 nM.

With `CN(C)CCOc1ccc(Nc2ncc3nc(Sc4cccc(F)c4)n(C4CCOCC4)c3n2)cc1` as the compound, how does the IC50 read?
The IC50 was 5.8 nM.

Which IC50 does the source give for `CN(C)C1CCN(c2ccc(Nc3ncc4nc(Sc5ccccc5)n(C5CCOCC5)c4n3)cc2)CC1` here?
Its IC50 is 1.9 nM.

For `CN1CCN(c2ccc(Nc3ncc4nc(Sc5ccccc5)n([C@H]5CC[C@H](O)CC5)c4n3)cc2)CC1`, which IC50 is on record?
Its IC50 is 2.4 nM.

Which IC50 does the source give for `CN(C)CCOc1ccc(Nc2ncc3nc([S+]([O-])c4ccccc4)n(C4CCOCC4)c3n2)cc1` (centres undefined) here?
Its IC50 is 2.6 nM.

With `CN1CCN(c2ccc(Nc3ncc4nc([S+]([O-])c5ccccc5)n(C5CCCC5)c4n3)cc2)CC1` (centres undefined) as the compound, how does the IC50 read?
Its IC50 is 4.2 nM.

Which IC50 does the source give for `CN(C)CCOc1ccc(Nc2ncc3nc(Sc4ccccc4)n(C4CCOCC4)c3n2)cc1` here?
The IC50 was 1.7 nM.

Which IC50 does the source give for `CN1CCN(c2ccc(Nc3ncc4nc(Sc5ccccc5)n(C5CCOCC5)c4n3)cc2)CC1` here?
Its IC50 is 2 nM.

For `CN1CCN(c2ccc(Nc3ncc4nc(Sc5ccccc5)n(C5CCCC5)c4n3)cc2)CC1`, which IC50 is on record?
The IC50 was 4.2 nM.
